Assay results reported in US8476255B2, “Histone deacetylase inhibitors” (Orchid Chemicals & Pharmaceuticals Limited, priority 2007, dated 2013).
pIC50: −log10 of the molar value.

Key:
NCIH460 (lung) cells = assay: Anti-cancer screen (MTT), NCIH460; format: cell-based; details: Homo sapiens, NCI-H460, NCIH460, 48 hours, MTT; for GI50: read-out: Cell growth inhibition NCIH460 (Lung) GI50; for LC50: read-out: Cell growth inhibition NCIH460 (Lung) LC50; for IC (TGI): read-out: Cell growth inhibition NCIH460 (Lung) TGI
Method in brief: (§1)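 Seeding at 5×10^4 cells/mL preceded 24 h culture, after which compounds diluted from DMSO stocks were added at final 0.01, 0.1, 1, 10 and 100 μM for 48 h. Viability was then read by MTT (3 h, 37 °C) at A570.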

[1] = test system: HDAC (Mouse Liver Extract); assay: HDAC inhibition assay using Boc-Lys(Ac)-AMC substrate; format: biochemical; details: mouse liver enzyme
Method in brief: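 Boc-Lys(Ac)-AMC substrate incubated with mouse liver extract as HDAC source, 5 min preincubation then 30 min at 37° C. Trypsin stop solution added (37° C., 15-30 min) to release AMC, read at ex 360/em 460 nm; buffer-only and substrate-only wells as blanks.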

HCT 116 (colon) cells = assay: Anti-cancer screen (MTT), HCT 116; format: cell-based; details: Homo sapiens, HCT-116, HCT116, 48 hours, MTT; for GI50: read-out: Cell growth inhibition HCT116 (Colon) GI50; for CC50: read-out: Cell growth inhibition HCT116 (Colon) LC50; for IC (TGI): read-out: Cell growth inhibition HCT116 (Colon) TGI
Method in brief: as §1

U251 (glioma) cells = assay: Anti-cancer screen (MTT), U251; format: cell-based; details: Homo sapiens, U-251, U251, 48 hours, MTT; for GI50: read-out: Cell growth inhibition U251 (Glioma) GI50; for LC50 (concentration giving 50% net cell kill relative to the time-zero cell count): read-out: Cell growth inhibition U251 (Glioma) LC50; for IC (TGI): read-out: Cell growth inhibition U251 (Glioma) TGI
Method in brief: as §1

[2] = test system: NCIH460, HCT116 and U251 cells; assay: Anti-cancer screen, mean GI50 over cell lines; format: cell-based; details: mean over cell lines; read-out: Cell growth inhibition Mean GI50
Method in brief: as §1

| Compound | GI50 (NCIH460 (lung) cells) [µM] | LC50 (NCIH460 (lung) cells) [µM] | IC (TGI) (NCIH460 (lung) cells) [µM] | HDAC inhibition % (1 μM) [1] [%] | HDAC inhibition % (10 μM) [1] [%] | GI50 (HCT 116 (colon) cells) [µM] | CC50 (HCT 116 (colon) cells) [µM] | IC (TGI) (HCT 116 (colon) cells) [µM] | GI50 (U251 (glioma) cells) [µM] | LC50 (concentration giving 50% net cell kill relative to the time-zero cell count) (U251 (glioma) cells) [µM] | IC (TGI) (U251 (glioma) cells) [µM] | GI50 [2] [µM] | pIC50 [1] |
| --- | --- | --- | --- | --- | --- | --- | --- | --- | --- | --- | --- | --- | --- |
| CSc1ccc(/C=C(/C(=O)NCc2ccc(C(=O)Nc3ccccc3N)cc2)c2ccsc2)cc1 [Compound 26, N-(2-Aminophenyl)-4-((3-(4-methylthiophenyl)-2-(thiophen-3-yl)acrylamido)methyl)benzamide] | 52 | > 100 | > 100 | 34.1 | 42.6 | 4 | > 100 | 15 | 50 | > 100 | 70 | 35.3 | – |
| COc1ccc(/C=C(/C(=O)NCc2ccc(C(=O)Nc3ccccc3N)cc2)c2ccccc2Cl)cc1OC [Compound 30, N-(2-Aminophenyl)-4-((3-(3,4-dimethoxyphenyl)-2-(2-chlorophenyl)acrylamido)methyl)benzamide] | > 100 | > 100 | > 100 | 7.1 | 30.1 | 100 | > 100 | > 100 | 1 | > 100 | > 100 | 50.5 | – |
| COC(=O)c1ccc(/C=C(/C(=O)NCc2ccc(C(=O)Nc3ccccc3N)cc2)c2cccc(Cl)c2)cc1 [Compound 33, N-(2-Aminophenyl)-4-((3-(4-carbmethoxyphenyl)-2-(3-chlorophenyl)acrylamido)methyl)benzamide] | 0.2 | 60 | 11 | 34.4 | 35.0 | 0.02 | 80 | 2 | 0.2 | 4.5 | 0.7 | 0.1 | 5.11 |
| COC(=O)c1ccc(/C=C(/C(=O)NCc2ccc(C(=O)Nc3ccccc3N)cc2)c2ccccc2F)cc1 [Compound 34, N-(2-Aminophenyl)-4-((3-(4-carbmethoxyphenyl)-2-(2-fluorophenyl)acrylamido)methyl)benzamide] | 10.1 | > 100 | 90 | 23.1 | 42.3 | 1.8 | > 100 | 13 | 0.7 | 65 | 23 | 4.2 | – |
| COC(=O)c1ccc(/C=C(/C(=O)NCc2ccc(C(=O)Nc3ccccc3N)cc2)c2ccc(OC)cc2)cc1 [Compound 35, N-(2-Aminophenyl)-4-((3-(4-carbmethoxyphenyl)-2-(4-methoxyphenyl)acrylamido)methyl)benzamide] | > 100 | > 100 | > 100 | 24.8 | 41.1 | 2 | > 100 | > 100 | > 100 | > 100 | > 100 | 2 | – |
| COC(=O)c1ccc(/C=C(/C(=O)NCc2ccc(C(=O)Nc3ccccc3N)cc2)c2cccs2)cc1 [Compound 36, N-(2-Aminophenyl)-4-((3-(4-carbmethoxyphenyl)-2-(thiophen-2-yl)acrylamido)methyl)benzamide] | 20 | > 100 | > 100 | 30.5 | 31.9 | 0.7 | > 100 | 35 | 18 | 90 | 50 | 12.9 | – |
| COc1ccc(/C=C(/C(=O)NCc2ccc(C(=O)Nc3ccccc3N)cc2)c2cccs2)cc1OC [Compound 37, N-(2-Aminophenyl)-4-((3-(3,4-dimethoxyphenyl)-2-(thiophen-2-yl)acrylamido)methyl)benzamide] | 2 | 100 | 6 | 31.7 | 59.9 | 1.1 | 80 | 6 | 2.6 | 51 | 7 | 1.9 | 5.30 |
| COC(=O)c1ccc(/C=C(/C(=O)NCc2ccc(C(=O)Nc3ccccc3N)cc2)c2ccc(F)c(F)c2)cc1 [Compound 38, N-(2-Aminophenyl)-4-((3-(4-carbmethoxyphenyl)-2-(3,4-difluorophenyl)acrylamido)methyl)benzamide] | 50 | > 100 | > 100 | 20.6 | 34.9 | 6.5 | > 100 | 80 | 15 | > 100 | 70 | 23.8 | – |
| COc1ccc(/C=C(/C(=O)NCc2ccc(C(=O)Nc3ccccc3N)cc2)c2ccccc2)c(OC)c1 [Compound 39, N-(2-Aminophenyl)-4-((3-(2,4-dimethoxyphenyl)-2-phenylacrylamido)methyl)benzamide] | 3.2 | > 100 | > 100 | 9.1 | 18.9 | 0.7 | > 100 | 80 | 3.2 | > 100 | 100 | 2.4 | – |
| COc1ccc(/C(=C\c2ccc(F)cc2)C(=O)NCc2ccc(C(=O)NO)cc2)cc1 [Compound 49, 4-((2-(4-Methoxyphenyl)-3-(4-fluorophenyl)acrylamido)methyl)-N-hydroxybenzamide] | 19 | 89 | 52.5 | 45.5 | 69.7 | 3.3 | 66 | 9 | 5.4 | 81 | 34.5 | 9.2 | 6.48 |
| O=C(NCc1ccc(C(=O)NO)cc1)/C(=C/c1ccc(F)cc1)c1ccc(C(F)(F)F)cc1 [Compound 50, 4-((2-(4-Trifluoromethyllphenyl)-3-(4-fluorophenyl)acrylamido)methyl)-N-hydroxybenzamide] | 38 | 92 | 69 | 50.1 | 87.1 | 22 | 88 | 55 | 43 | 87 | 72 | 34.3 | – |
| O=C(NCc1ccc(C(=O)NO)cc1)/C(=C/c1ccc(F)cc1)c1ccccc1 [Compound 51, 4-((2-(Phenyl)-3-(4-fluorophenyl)acrylamido)methyl)-N-hydroxybenzamide] | 24 | 86 | 60 | 74.5 | 90.8 | 7.5 | 83 | 36 | 6 | 72 | 48 | 12.5 | – |
| CSc1ccc(/C=C(/C(=O)NCc2ccc(C(=O)NO)cc2)c2ccc(F)cc2)cc1 [Compound 52, 4-((2-(4-Fluorophenyl)-3-(4-methylthiophenyl)acrylamido)methyl)-N-hydroxybenzamide] | 12 | 82 | 53 | 83.5 | 95.7 | 5.6 | 69 | 9.6 | 10 | 75 | 54 | 9.2 | 7.22 |
| COc1ccc(/C=C(/C(=O)NCc2ccc(C(=O)NO)cc2)c2ccc(F)cc2)cc1 [Compound 53, 4-((2-(4-Fluorophenyl)-3-(4-methoxyphenyl)acrylamido)methyl)-N-hydroxybenzamide] | 5.5 | 49 | 20 | 88.6 | 94.4 | 3 | 51 | 17 | 2.9 | 30 | 7 | 3.8 | 7.40 |
